Patent publication US10365275B2, “Immunologically active polypeptide” (Institute of Arthritis Research, LLC, priority 2013, dated 2019)

What was measured:
Assay type in all cases: cell-based
[1] = test system: peripheral blood cells; test: Cytokine production by human peripheral blood cells (MSD panel)
Experimental: In order to examine the biological activity of IgX, cytokine production from human peripheral whole blood samples incubated with IgX was measured. Peripheral whole blood samples from three different donors (#66, 67, and 85) were obtained with appropriate informed consent and incubated with concentrations of IgX ranging from 0 to 200 ug/ml.
Protein A purified IgX was prepared from placental sample BC, brought to 0.05 M phosphate, 0.15 M NaCl buffer, pH 7.4, treated with an endotoxin affinity column (ActiClean Etox™ from Sterogene, Carlsbad, Calif.) according to the supplier's instructions, and then sent to IBT Bioservices (Gaithersburg, Md.) for human peripheral blood testing. […] All peripheral blood cells were suspended in RPMI-1640 media. Various concentrations of IgX were incubated with peripheral blood cells from donor D66 for 18 hours, and then the samples were stimulated with 1 ug/ml of PHA, 50 ng/ml of LPS, or 10 ng/ml of IFNγ (200 U/ml) for four hours. Samples of culture supernatant fluids were tested in duplicate for the presence of IL-2, IL-4, IL-6, IL-10, IL-12, and TNFα using a Meso Scale Discovery (MSD, Gaithersburg, Md.) panel.
PeptideX1 and PeptideX2 were incubated with peripheral blood cells from donor D67 as described above and tested in duplicate for IL-6 activity. […]

[2] = test system: E. coli; test: E. coli growth (CFU) with human peripheral blood leukocytes; conditions: E. coli with WBCs with PeptideX2, 10 hours
Experimental: Human peripheral blood leukocytes (WBCs) were obtained from healthy donors with informed consent. Three test groups were inoculated with E. coli and incubated for 10 hours. The three groups were E. coli with serum alone, E. coli with WBCs, and E. coli with WBCs with PeptideX2. Samples were taken at 0, 2, 4, 6 and 10 hours and plated for colony forming units (CFUs). […] In a separate but similar experiment, nine test groups (E. coli with serum alone, E. coli with WBCs, and E. coli with WBCs with PeptideX2 at each of seven indicated concentrations, see FIG. 12) were incubated over a time course of three hours, with quantification of bacterial CFU performed at times 0, 1.5 and 3 hours (FIG. 12).

[3] = molecular target: T1, human TLR2 (Homo sapiens, UniProt O60603); test: NF-κB-driven SEAP reporter assay in TLR-transfected HEK293 cells
T1 construct: host or cells: HEK293
T1 sequence (O60603 21-784): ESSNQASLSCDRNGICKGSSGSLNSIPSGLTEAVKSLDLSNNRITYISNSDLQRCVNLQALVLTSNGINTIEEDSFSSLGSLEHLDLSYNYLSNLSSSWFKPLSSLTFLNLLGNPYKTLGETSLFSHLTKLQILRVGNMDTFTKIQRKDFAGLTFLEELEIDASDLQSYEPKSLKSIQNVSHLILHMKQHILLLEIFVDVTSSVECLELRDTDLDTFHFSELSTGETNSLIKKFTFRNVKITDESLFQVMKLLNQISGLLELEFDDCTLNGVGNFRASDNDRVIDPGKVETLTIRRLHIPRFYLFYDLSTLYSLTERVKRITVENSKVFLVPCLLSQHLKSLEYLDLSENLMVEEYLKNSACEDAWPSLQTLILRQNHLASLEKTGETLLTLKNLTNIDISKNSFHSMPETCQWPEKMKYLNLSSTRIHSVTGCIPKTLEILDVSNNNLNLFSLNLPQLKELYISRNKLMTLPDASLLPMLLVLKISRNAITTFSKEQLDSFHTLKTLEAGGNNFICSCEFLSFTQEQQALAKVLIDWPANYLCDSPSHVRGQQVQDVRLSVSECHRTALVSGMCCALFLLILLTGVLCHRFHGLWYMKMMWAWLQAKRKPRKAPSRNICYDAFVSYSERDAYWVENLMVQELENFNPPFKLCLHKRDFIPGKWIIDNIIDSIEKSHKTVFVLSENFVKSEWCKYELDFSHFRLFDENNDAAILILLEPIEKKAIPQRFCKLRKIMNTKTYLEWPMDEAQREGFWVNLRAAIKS
Experimental: (§1) PeptideX2 (200 μg/mL) was tested for its effects on human TLR-driven NF-κB activation in HEK293 cell lines transfected with human TLR2, 3, 4, 5, 7, 8 or 9 (InvivoGen, San Diego, Calif.). HEK293 cells (50,000 to 75,000 cells/well) expressing the indicated TLR were plated in wells of a 96-well plate (200 μl total volume) containing either with no additions, PeptideX2 (in 20 μl buffer), or buffer only (20 μl) as a vehicle control. All cells contained a reporter construct having coding sequence for Secreted Embryonic Alkaline Phosphatase (SEAP) under the control of a promoter inducible by the transcription of NF-κB, and were incubated in media containing a detectable SEAP expression indicator (InvivoGen, San Diego, Calif.). After 16-20 hours incubation at 37° C., the optical density of culture supernatants was read at 650 nm on a Molecular Devices SpectraMax™ 340PC absorbance detector.
(§2) The relative potency of PeptideX2 induction of human TLR-mediated NF-κB activation was compared to the effects of known PAMP ligands that have activity as agonists for each of the human TLRs TLR2, TLR3, TLR4, TLR5, TLR7, TLR8 and TLR9, using the NF-κB-driven SEAP reporter assay (InvivoGen, San Diego, Calif.). The known TLR agonists were as follows: for TLR2, heat killed Listeria monocytogenes (HKLM) at 10^8 cells/ml; for TLR3, poly(I:C) at 1 ug/ml; for TLR4, E. coli K12 LPS at 100 ng/ml; for TLR5, S. typhimurium flagellin at 100 ng/ml; for TLR7, CL097 at 1 ug/ml; for TLR8, CL075 at 1 ug/ml; for TLR9, CpG ODN 2006 at 100 ng/ml.

[4] = molecular target: T2, human TLR4 (Homo sapiens, UniProt O00206); test: as above; conditions: PeptideX2 200 μg/mL, 16-20 hours
T2 construct: host or cells: HEK293
T2 sequence (O00206 24-839): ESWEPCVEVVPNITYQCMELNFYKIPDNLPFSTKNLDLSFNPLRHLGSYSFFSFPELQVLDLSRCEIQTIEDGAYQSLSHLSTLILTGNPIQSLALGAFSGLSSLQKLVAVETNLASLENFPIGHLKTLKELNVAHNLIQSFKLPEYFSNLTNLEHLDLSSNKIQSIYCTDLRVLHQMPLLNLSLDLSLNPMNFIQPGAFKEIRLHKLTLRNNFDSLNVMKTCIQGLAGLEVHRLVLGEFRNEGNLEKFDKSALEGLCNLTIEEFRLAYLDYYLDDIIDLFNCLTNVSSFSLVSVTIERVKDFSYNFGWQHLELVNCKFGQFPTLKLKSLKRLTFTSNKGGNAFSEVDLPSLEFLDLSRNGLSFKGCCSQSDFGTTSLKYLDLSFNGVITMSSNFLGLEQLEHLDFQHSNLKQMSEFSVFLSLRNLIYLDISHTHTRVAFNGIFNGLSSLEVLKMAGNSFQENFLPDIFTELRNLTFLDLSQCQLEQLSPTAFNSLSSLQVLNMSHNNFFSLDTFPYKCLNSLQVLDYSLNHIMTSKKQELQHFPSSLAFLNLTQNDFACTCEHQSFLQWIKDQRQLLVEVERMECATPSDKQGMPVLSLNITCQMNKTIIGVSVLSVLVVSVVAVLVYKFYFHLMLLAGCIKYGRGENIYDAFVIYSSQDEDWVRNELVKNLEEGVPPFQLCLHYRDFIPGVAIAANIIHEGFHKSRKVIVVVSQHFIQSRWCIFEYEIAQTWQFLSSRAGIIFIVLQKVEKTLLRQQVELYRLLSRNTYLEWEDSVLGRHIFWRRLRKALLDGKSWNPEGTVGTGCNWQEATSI
T2 sequence (Q9Y6Y9 17-160 partner limits assumed): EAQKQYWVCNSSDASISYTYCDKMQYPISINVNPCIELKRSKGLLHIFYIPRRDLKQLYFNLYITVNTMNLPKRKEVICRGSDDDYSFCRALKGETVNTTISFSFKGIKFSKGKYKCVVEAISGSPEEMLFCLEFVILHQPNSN
Experimental: as §1, §2

[5] = molecular target: T3, murine TLR2 (Mus musculus, UniProt Q9QUN7); test: as above; conditions: PeptideX2 200 μg/mL
T3 construct: host or cells: HEK293
T3 sequence (Q9QUN7 25-784): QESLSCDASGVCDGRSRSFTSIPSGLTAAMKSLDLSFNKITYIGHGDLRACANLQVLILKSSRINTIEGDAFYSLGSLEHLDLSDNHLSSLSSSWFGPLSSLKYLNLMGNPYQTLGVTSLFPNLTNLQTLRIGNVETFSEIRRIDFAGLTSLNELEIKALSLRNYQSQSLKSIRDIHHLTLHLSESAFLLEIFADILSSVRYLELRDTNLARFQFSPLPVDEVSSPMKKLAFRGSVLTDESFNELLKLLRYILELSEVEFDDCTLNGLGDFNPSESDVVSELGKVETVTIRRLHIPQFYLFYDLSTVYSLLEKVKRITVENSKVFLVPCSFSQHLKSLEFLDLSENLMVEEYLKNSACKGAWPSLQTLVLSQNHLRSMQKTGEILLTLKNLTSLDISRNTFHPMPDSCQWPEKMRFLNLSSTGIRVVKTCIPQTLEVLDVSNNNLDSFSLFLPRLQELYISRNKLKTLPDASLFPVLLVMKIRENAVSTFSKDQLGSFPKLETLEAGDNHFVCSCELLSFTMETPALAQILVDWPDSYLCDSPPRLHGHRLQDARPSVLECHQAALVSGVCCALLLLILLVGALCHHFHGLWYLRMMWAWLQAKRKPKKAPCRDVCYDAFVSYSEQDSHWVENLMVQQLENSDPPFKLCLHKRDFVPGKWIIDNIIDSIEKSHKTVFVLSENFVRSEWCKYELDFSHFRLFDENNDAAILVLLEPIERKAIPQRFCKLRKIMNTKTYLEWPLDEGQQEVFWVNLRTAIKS
Experimental: as §1
(§3) PeptideX2 (200 μg/mL) was also tested for its effects on murine TLR-driven NE-κB activation in HEK293 cell lines transfected with murine TLR2, 3, 4, 5, 7, 8 or 9 (InvivoGen, San Diego, Calif.) essentially as described above.

[6] = test system: murine TLR3, 5, 7, 8 or 9; test: as above; conditions: PeptideX2 200 μg/mL
Experimental: as §1, §3

[7] = molecular target: T4, murine TLR4 (Mus musculus, UniProt Q9QUK6); test: as above; conditions: PeptideX2 200 μg/mL
T4 construct: host or cells: HEK293
T4 sequence (Q9QUK6 26-835): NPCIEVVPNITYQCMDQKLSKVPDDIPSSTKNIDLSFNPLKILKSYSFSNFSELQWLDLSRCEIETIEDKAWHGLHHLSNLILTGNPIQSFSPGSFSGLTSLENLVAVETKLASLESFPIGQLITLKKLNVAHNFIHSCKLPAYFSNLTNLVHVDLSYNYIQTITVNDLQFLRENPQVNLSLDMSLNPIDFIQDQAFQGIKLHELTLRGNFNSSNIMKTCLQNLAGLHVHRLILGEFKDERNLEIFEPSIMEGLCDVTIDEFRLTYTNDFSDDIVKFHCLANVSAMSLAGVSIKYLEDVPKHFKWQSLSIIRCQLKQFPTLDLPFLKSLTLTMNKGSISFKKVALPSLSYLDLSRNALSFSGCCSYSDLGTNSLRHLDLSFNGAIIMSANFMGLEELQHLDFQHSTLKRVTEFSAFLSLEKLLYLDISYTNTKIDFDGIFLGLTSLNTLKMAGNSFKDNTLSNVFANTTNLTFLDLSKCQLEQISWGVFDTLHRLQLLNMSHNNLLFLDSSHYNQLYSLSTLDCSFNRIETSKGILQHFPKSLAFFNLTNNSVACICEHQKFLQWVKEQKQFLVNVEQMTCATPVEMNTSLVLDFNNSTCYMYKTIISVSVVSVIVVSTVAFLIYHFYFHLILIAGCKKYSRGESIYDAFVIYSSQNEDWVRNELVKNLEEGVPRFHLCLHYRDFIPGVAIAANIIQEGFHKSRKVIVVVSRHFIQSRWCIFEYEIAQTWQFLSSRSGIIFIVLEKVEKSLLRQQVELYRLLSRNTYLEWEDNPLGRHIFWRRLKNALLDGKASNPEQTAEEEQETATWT
T4 sequence (Q9JHF9 19-160 partner): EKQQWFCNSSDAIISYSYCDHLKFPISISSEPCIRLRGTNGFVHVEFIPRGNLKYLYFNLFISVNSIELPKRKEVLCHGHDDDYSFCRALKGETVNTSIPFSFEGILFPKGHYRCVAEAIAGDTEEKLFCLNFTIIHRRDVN
Experimental: as §1, §3

[8] = test system: Staphylococcus aureus; test: S. aureus growth (CFU) with human peripheral blood white cells
Experimental: (§4) Staphylococcus aureus bacteria were incubated with human peripheral blood white cells (WBC) in the absence or presence of PeptideX2 (0, 10, and 100 μg/ml), and the effects on S. aureus growth were assessed by serial dilutions, microbiological plating and determination by counting colony forming units (CFU) in culture samples withdrawn after incubation times of 0, 1.5 and 3 hours. The WBC-to-Staph ratio was 100:1, using WBC at 4×10^6/ml and Staph 4×10^4 CFU/ml.

[9] = test system: human peripheral blood white cells (WBC); test: TNFα production by WBC during short-term incubation with S. aureus (ELISA); conditions: for TNFα concentration: 3-hour culture
Experimental: as §4, with “CFU/ml. Supernatant fluids from the same experimental cultures were also tested for TNFα production by WBC during the short-term incubations with S. aureus. […] In this three-hour timeframe, however, the presence of PeptideX2 at these concentrations had no effect on WBC bacteriocidal activity against S. aureus.” for “CFU/ml.”

Sequence: KSIAYLQMNSLK (Peptide fragment) [PeptideX2, dodecapeptide derived from the heavy chain hypervariable region of IgX, residues 97-108 of AAH90938.1]
- IL-6 production ([1]; cells from donor #67, compared to peptideX1): significantly greater IL-6 production compared to peptideX1
- IL-6 production ([1]; cells from donor #85, PeptideX2 0, 10, 100 or 200 ug/ml): enhanced production
- E. coli CFUs [2]: rapid rise in CFUs
- TLR2-mediated response as level of the response to HKLM ([3]; PeptideX2 200 μg/mL vs HKLM at 10^8 cells/ml): 14%
- NF-κB activation via TLR2 ([3]; PeptideX2 200 μg/mL, 16-20 hours): activation of NF-κB via TLR2 and TLR4
- NF-κB activation via TLR4 [4]: activation of NF-κB via TLR2 and TLR4
- NF-κB-driven SEAP expression through murine TLR2 [5]: induction
- NF-κB-driven SEAP expression through the other murine TLRs tested [6]: not through the other TLRs tested
- NF-κB-driven SEAP expression through murine TLR4 [7]: induction
- potency via murine TLR4 relative to murine TLR2 [7]: greater potency in activating via murine TLR4 relative to murine TLR2
- effect on WBC bacteriocidal activity against S. aureus ([8]; PeptideX2 10 and 100 ug/ml, three-hour timeframe): no effect
- S. aureus growth ([8]; WBC present, up to three hours, presence or absence of PeptideX2 (0, 10, 100 μg/ml)): no S. aureus growth was detected
- reduction in TNFα production ([9]; 100 ug/ml PeptideX2, 3-hour timepoint): 65%
- TNFα concentration ([9]; WBC plus PeptideX2 at 10 ug/ml): 160 pg/mL
- TNFα concentration ([9]; WBC plus PeptideX2 at 100 ug/ml): 76 pg/mL
- TNFα concentration ([9]; serum plus PeptideX2 at 100 ug/ml (no WBC)): 0.05 pg/mL
- reduction in TNFα production ([9]; PeptideX2 at 10 ug/ml, 3-hour timepoint): 27%
